Data taken from patent publication US20250179047A1, “5-[7-(3,4-DIHYDRO-1H-ISOQUINOLINE-2-CARBONYL)-1,2,3,4 TETRAHYDROISOQUINOLIN-6-YL]-1H-PYRROLE-3-CARBOXAMIDE DERIVATIVES, PHARMACEUTICAL COMPOSITIONS CONTAINING THEM AND THEIR USES AS PRO-APOPTOTIC AGENTS” (LES LABORATOIRES SERVIER, priority 2022, published 2025).

What was measured:
[1] = tested on: KMS-12-PE Bcl-2 WT; test: In vitro cytotoxicity CellTiter-Glo 48 h, KMS-12-PE Bcl-2 WT; assay type: cell-based; conditions: C50 = concentration needed to reach 50% of the cellular viability
Summary of the method: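 KMS-12-PE myeloma cells lentivirally transduced with Bcl-2 WT or G101V (TagRFP-sorted), exposed to compound 11-point dose-response for 48 h at 37 °C, 5% CO2. Viability read by CellTiter-Glo ATP luminescence; C50 is the concentration giving 50% cellular viability.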

[2] = target: BCLXL WT (Homo sapiens (Human), UniProt Q07817); test: TR-FRET competitive binding assay, BCLXL WT; conditions: for Ki: BCLXL WT, Ki determined from IC50, read-out: TR_FRET EKI BclxL; for TR_FRET EKI BCLxL/WT selectivty ratio: ratio Ki BCLxL / Ki BCL2 WT
Summary of the method: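 Competitive TR-FRET displacement of fluorescein-PUMA peptide (2 or 20 nM) from 0.5 nM terbium-labelled N-terminal Halo-fusion BCL2 (1-207, wild type or mutant) or BCLXL (2-196), expressed in E. coli. Buffer 50 mM Hepes pH 7.5, 150 mM NaCl, 5% DMSO; 2 h at 23°C. 520/495 nm ratio fitted over 11 points for IC50, converted to Ki.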

[3] = tested on: KMS12PE Bcl2 D103E; test: In vitro cytotoxicity CellTiterGlo 72 h, KMS12PE Bcl2 D103E; assay type: cell-based; conditions: Homo sapiens, KMS-12-PE, read-out: C50 nM, KMS12PE Bcl2 D103E
Protocol: KMS-12-PE (ACC 606) were purchased from the Leibniz-Institute DSMZ (Braunschweig, Germany) and were grown at 37° C. in a humidified atmosphere with 5% CO2 in media recommended by the suppliers. Lentiviral particles containing Bcl-2 wild type (also named “Bcl2 WT”), Bcl-2 mutated on G101V (also named “Bcl2 G101V”), Bcl-2 mutated on D103Y (also named “Bcl2 D103Y”), Bcl-2 mutated on D103V (also named “Bcl2 D103V”), Bcl-2 mutated on D103E (also named “Bcl2 D103E”), Bcl-2 mutated on F104I (also named “Bcl2 F104I”), Bcl-2 mutated on F104L (also named “Bcl2 F104L”), Bcl-2 mutated on D111A (also named “Bcl2 D111A”), Bcl-2 mutated on A113G (also named “Bcl2 A113G”), Bcl-2 mutated on R129L (also named “Bcl2 R129L”), Bcl-2 mutated on V156D (also named “Bcl2 V156D”) were cloned into pcLV-CMV-DEST-IRES-TagRFP. Lentiviral particles (1×10^6) were mixed with Polybrene at 8 μg/ml and transduced by spinoculation for 1 h at 32° C. and incubated overnight. After 8 days, TagRFP positive-cells were sorted by FACS. BCL2 expression was monitored by immunoblotting using anti-Flag and anti-BCL2 antibodies. Cells were seeded into 96-wells plates and treated with 1:3.16 serial dilution of compounds (9 different concentrations). Cell viability was assessed using CellTiterGlo reagent following treatment for 72 h. Results were normalized to the viability of cells without compounds (control wells). The C50 values were calculated using nonlinear regression algorithms in XCell software.

BCLXL WT, sequence (Q07817 other isoform, or with tags, fused parts or gaps): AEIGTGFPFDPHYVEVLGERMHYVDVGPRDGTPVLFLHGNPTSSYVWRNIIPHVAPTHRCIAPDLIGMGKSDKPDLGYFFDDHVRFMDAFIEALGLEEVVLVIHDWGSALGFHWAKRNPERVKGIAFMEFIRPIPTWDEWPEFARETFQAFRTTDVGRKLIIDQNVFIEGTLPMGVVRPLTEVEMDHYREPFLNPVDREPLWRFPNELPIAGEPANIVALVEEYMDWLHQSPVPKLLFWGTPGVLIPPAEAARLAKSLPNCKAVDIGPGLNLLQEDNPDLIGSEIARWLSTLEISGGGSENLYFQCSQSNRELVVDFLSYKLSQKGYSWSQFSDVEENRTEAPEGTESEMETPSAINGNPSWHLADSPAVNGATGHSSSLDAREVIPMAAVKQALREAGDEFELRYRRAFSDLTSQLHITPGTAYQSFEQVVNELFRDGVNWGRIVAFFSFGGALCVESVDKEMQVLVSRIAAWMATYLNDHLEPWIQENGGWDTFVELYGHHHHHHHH

Ki [2] [nM] | TR_FRET EKI BCLxL/WT selectivty ratio [2] | Structure (SMILES) | IC50 ([1]; Homo sapiens, KMS-12-PE) [µM] | IC50 [3] [nM] | IC50 [1] [µM]
1.2 | 18.5 | Cc1c(N(C(=O)c2cc(-c3cc4c(cc3C(=O)N3Cc5ccccc5C[C@H]3C)CN(C(=O)Cc3ccc(OCCN5CCC(F)CC5)cc3)CC4)n(C)c2C)c2ccc(O)cc2)cc(C#N)n1C [Example 53, N-(5-cyano-1,2-dimethyl-1H-pyrrol-3-yl)-5-[2-(2-{4-[2-(4-fluoropiperidin-1-yl)ethoxy]phenyl}acetyl)-7-[(3R)-3-methyl-1,2,3,4-tetrahydroisoquinoline-2-carbonyl]-1,2,3,4-tetrahydroisoquinolin-6-yl]-N-(4-hydroxyphenyl)-1,2-dimethyl-1H-pyrrole-3-carboxamide] | 0.0072 | 2.76 | 
2.6 | 26.5 | Cc1c(N(C(=O)c2cc(-c3cc4c(cc3C(=O)N3Cc5ccccc5C[C@H]3C)CN(C(=O)Cc3ccc(OCCN5CCSCC5)cc3)CC4)n(C)c2C)c2ccc(O)cc2)cc(C#N)n1C [Example 55, N-(5-cyano-1,2-dimethyl-1H-pyrrol-3-yl)-N-(4-hydroxyphenyl)-1,2-dimethyl-5-{7-[(3R)-3-methyl-1,2,3,4-tetrahydroisoquinoline-2-carbonyl]-2-(2-{4-[2-(thiomorpholin-4-yl)ethoxy]phenyl}acetyl)-1,2,3,4-tetrahydroisoquinolin-6-yl}-1H-pyrrole-3-carboxamide] | 0.0062 | 2.91 | 
4 | 47.6 | Cc1c(N(C(=O)c2cc(-c3cc4c(cc3C(=O)N3Cc5ccccc5C[C@H]3CN3CCCCC3)CN(C(=O)Cc3ccc(OCCC5CCOCC5)cc3)CC4)n(C)c2C)c2ccc(O)cc2)cc(C#N)n1C [Example 66, N-(5-cyano-1,2-dimethylpyrrol-3-yl)-N-(4-hydroxyphenyl)-1,2-dimethyl-5-[2-(2-{4-[2-(oxan-4-yl)ethoxy]phenyl}acetyl)-7-{[(3S)-3-(piperidin-1-ylmethyl)-3,4-dihydro-1H-isoquinolin-2-yl]carbonyl}-3,4-dihydro-1H-isoquinolin-6-yl]pyrrole-3-carboxamide] | 0.006 | 1.89 | 
8 | 135.6 | Cc1c(C(=O)N(c2ccc(O)cc2)c2cc(C#N)n(C(F)F)c2C)cc(-c2cc3c(cc2C(=O)N2Cc4ccccc4C[C@H]2CN2CCCCC2)CN(C(=O)Cc2ccc(OCCN4CCOCC4)cc2)CC3)n1C [Example 77] | 0.0084 | 4.69 | 
7.8 | 87.6 | Cc1c(N(C(=O)c2cc(-c3cc4c(cc3C(=O)N3Cc5ccccc5C[C@H]3CN3CCC[C@H](C)C3)CN(C(=O)Cc3ccc(OCCN5CCOCC5)cc3F)CC4)n(C)c2C)c2ccc(O)cc2)cc(C#N)n1C [Example 107] | 0.0034 | 1.22 | 

Further lines, the compound ahead of its results:

Structure (SMILES) | Ki [2] [nM] | TR_FRET EKI BCLxL/WT selectivty ratio [2] | IC50 ([1]; Homo sapiens, KMS-12-PE) [µM] | IC50 [3] [nM] | IC50 [1] [µM]
Cc1c(N(C(=O)c2cc(-c3cc4c(cc3C(=O)N3Cc5ccccc5C[C@H]3C)CN(C(=O)Cc3ccc(OCCN5CCOCC5)cc3)CC4)n(C)c2C)c2ccc(O)cc2)cc(C#N)n1C [Example 21, N-(5-cyano-1,2-dimethyl-1H-pyrrol-3-yl)-N-(4-hydroxyphenyl)-1,2-dimethyl-5-{7-[(3R)-3-methyl-1,2,3,4-tetrahydroisoquinoline-2-carbonyl]-2-(2-{4-[2-(morpholin-4-yl)ethoxy]phenyl}acetyl)-1,2,3,4-tetrahydroisoquinolin-6-yl}-1H-pyrrole-3-carboxamide] | 1.1 | 10.0 | 0.0057 | 2.36 | 
Cc1c(N(C(=O)c2cc(-c3cc4c(cc3C(=O)N3Cc5ccccc5C[C@H]3C)CN(C(=O)Cc3ccc(OCCC5CCOCC5)cc3)CC4)n(C)c2C)c2ccc(O)cc2)cc(C#N)n1C [Example 27, N-(5-cyano-1,2-dimethyl-1H-pyrrol-3-yl)-N-(4-hydroxyphenyl)-1,2-dimethyl-5-{7-[(3R)-3-methyl-1,2,3,4-tetrahydroisoquinoline-2-carbonyl]-2-(2-{4-[2-(oxan-4-yl)ethoxy]phenyl}acetyl)-1,2,3,4-tetrahydroisoquinolin-6-yl}-1H-pyrrole-3-carboxamide] | 10.1 | 12.6 | 0.0037 | 1.44 | 
Cc1c(N(C(=O)c2cc(-c3cc4c(cc3C(=O)N3Cc5ccccc5C[C@H]3CN3CCCCC3)CN(C(=O)Cc3ccc(OCCN5CCOCC5)cc3F)CC4)n(C)c2C)c2ccc(O)cc2)cc(C#N)n1C [Example 43, N-(5-cyano-1,2-dimethylpyrrol-3-yl)-5-[2-(2-{2-fluoro-4-[2-(morpholin-4-yl)ethoxy]phenyl}acetyl)-7-{[(3S)-3-(piperidin-1-ylmethyl)-3,4-dihydro-1H-isoquinolin-2-yl]carbonyl}-3,4-dihydro-1H-isoquinolin-6-yl]-N-(4-hydroxyphenyl)-1,2-dimethylpyrrole-3-carboxamide] | 2.2 | 55.0 |  | 1.44 | 0.0048
Cc1c(N(C(=O)c2cc(-c3cc4c(cc3C(=O)N3Cc5ccccc5C[C@H]3C)CN(C(=O)Cc3ccc(N5CCN6CCOC[C@@H]6C5)cc3F)CC4)n(C)c2C)c2ccc(O)cc2)cc(C#N)n1C [Example 45, 5-[2-(2-{4-[(9aS)-octahydropyrazino[2,1-c][1,4]oxazin-8-yl]-2-fluorophenyl}acetyl)-7-[(3R)-3-methyl-1,2,3,4-tetrahydroisoquinoline-2-carbonyl]-1,2,3,4-tetrahydroisoquinolin-6-yl]-N-(5-cyano-1,2-dimethyl-1H-pyrrol-3-yl)-N-(4-hydroxyphenyl)-1,2-dimethyl-1H-pyrrole-3-carboxamide] | 2.5 | 31.6 | 0.005 | 2.7 | 
Cc1c(N(C(=O)c2cc(-c3cc4c(cc3C(=O)N3Cc5ccccc5C[C@H]3C)CN(C(=O)Cc3ccc(CCN5CCC(F)(F)CC5)cc3)CC4)n(C)c2C)c2ccc(O)cc2)cc(C#N)n1C [Example 51, N-(5-cyano-1,2-dimethylpyrrol-3-yl)-5-[2-(2-{4-[2-(4,4-difluoropiperidin-1-yl)ethyl]phenyl}acetyl)-7-{[(3R)-3-methyl-3,4-dihydro-1H-isoquinolin-2-yl]carbonyl}-3,4-dihydro-1H-isoquinolin-6-yl]-N-(4-hydroxyphenyl)-1,2-dimethylpyrrole-3-carboxamide] | 4.4 | 20.0 | 0.0068 | 2.81 | 
COC[C@@H]1Cc2ccccc2CN1C(=O)c1cc2c(cc1-c1cc(C(=O)N(c3ccc(O)cc3)c3cc(C#N)n(C)c3C)c(C)n1C)CCN(C(=O)Cc1ccc(OCCC3CCOCC3)cc1F)C2 [Example 52, N-(5-cyano-1,2-dimethylpyrrol-3-yl)-5-[2-(2-{2-fluoro-4-[2-(oxan-4-yl)ethoxy]phenyl}acetyl)-7-{[(3S)-3-(methoxymethyl)-3,4-dihydro-1H-isoquinolin-2-yl]carbonyl}-3,4-dihydro-1H-isoquinolin-6-yl]-N-(4-hydroxyphenyl)-1,2-dimethylpyrrole-3-carboxamide] | 3 | 15.2 | 0.0034 | 1.86 | 
Cc1c(C(=O)N(c2ccc(O)cc2)c2cc(C#N)n(C(F)F)c2C)cc(-c2cc3c(cc2C(=O)N2Cc4ccccc4C[C@H]2CN2CCCCC2)CN(C(=O)Cc2ccc(OCCN4CCOCC4)cc2F)CC3)n1C [Example 78, N-[5-cyano-1-(difluoromethyl)-2-methylpyrrol-3-yl]-5-[2-(2-{2-fluoro-4-[2-(morpholin-4-yl)ethoxy]phenyl}acetyl)-7-{[(3S)-3-(piperidin-1-ylmethyl)-3,4-dihydro-1H-isoquinolin-2-yl]carbonyl}-3,4-dihydro-1H-isoquinolin-6-yl]-N-(4-hydroxyphenyl)-1,2-dimethylpyrrole-3-carboxamide] | 7.1 | 134.0 | 0.005 | 1.18 | 
